Laboratory results published in ChEMBL document CHEMBL3856198, “Synthesis of novel 17-(4'-formyl)pyrazolylandrosta-5,16-dienes and their derivatives as potent 17α-hydroxylase/C17,20-lyase inhibitors or antiproliferative agents depending on the substitution pattern of the heteroring” (Eur J Med Chem, 2016).

Experiments:
[1] = Growth inhibition of human MCF7 cells at 10 uM after 72 hrs by MTT assay; format: functional; settings: MCF7, 72 h, read-out: GI
[2] = Growth inhibition of human MCF7 cells at 30 uM after 72 hrs by MTT assay; format: functional; settings: MCF7, 72 h, read-out: GI
[3] = Growth inhibition of human T47D cells at 10 uM after 72 hrs by MTT assay; format: functional; settings: read-out: GI
[4] = Growth inhibition of human T47D cells at 30 uM after 72 hrs by MTT assay; format: functional; settings: read-out: GI
[5] = Growth inhibition of human T47D cells after 72 hrs by MTT assay; format: functional, cell-based
[6] = Growth inhibition of human MDA-MB-231 cells at 10 uM after 72 hrs by MTT assay; format: functional; settings: MDA-MB-231, 72 h, read-out: GI
[7] = Growth inhibition of human MDA-MB-231 cells at 30 uM after 72 hrs by MTT assay; format: functional; settings: MDA-MB-231, 72 h, read-out: GI
[8] = Growth inhibition of human MDA-MB-231 cells after 72 hrs by MTT assay; format: functional, cell-based; settings: MDA-MB-231, 72 h
[9] = Growth inhibition of human MDA-MB-361 cells at 10 uM after 72 hrs by MTT assay; format: functional; settings: MDA-MB-361, 72 h, read-out: GI
[10] = Growth inhibition of human MDA-MB-361 cells at 30 uM after 72 hrs by MTT assay; format: functional; settings: MDA-MB-361, 72 h, read-out: GI
[11] = Growth inhibition of human MDA-MB-361 cells after 72 hrs by MTT assay; format: functional, cell-based; settings: MDA-MB-361, 72 h
[12] = Growth inhibition of human MCF7 cells after 72 hrs by MTT assay; format: functional, cell-based; settings: MCF7, 72 h

## C[C@]12CC[C@H](O)CC1=CC[C@@H]1[C@@H]2CC[C@]2(C)C(c3nn(-c4ccc(Cl)cc4)cc3CO)=CC[C@@H]12
[1]
  inhibition of growth at 10 µM: 54.3%
[2]
  inhibition of growth at 30 µM: 90.9%
[3]
  inhibition of growth at 10 µM: 81%
[4]
  inhibition of growth at 30 µM: 94.8%
[5]
  IC50: 5.7 µM
[6]
  inhibition of growth at 10 µM: 93.2%
[7]
  inhibition of growth at 30 µM: 97.8%
[8]
  IC50: 3.6 µM
[9]
  inhibition of growth at 10 µM: 80%
[10]
  inhibition of growth at 30 µM: 93.1%
[11]
  IC50: 2.5 µM

## C[C@]12CC[C@H](O)CC1=CC[C@@H]1[C@@H]2CC[C@]2(C)C(c3nn(-c4ccccc4)cc3C=O)=CC[C@@H]12
[1]
  inhibition of growth at 10 µM: 93.4%
[2]
  inhibition of growth at 30 µM: 98.1%
[12]
  IC50: 3.7 µM
[3]
  inhibition of growth at 10 µM: 93.2%
[4]
  inhibition of growth at 30 µM: 96.9%
[5]
  IC50: 3.9 µM
[6]
  inhibition of growth at 10 µM: 93.5%
[7]
  inhibition of growth at 30 µM: 96.3%
[8]
  IC50: 5.4 µM
[9]
  inhibition of growth at 10 µM: 88.6%
[10]
  inhibition of growth at 30 µM: 95.8%
[11]
  IC50: 3.8 µM

## C[C@]12CC[C@H](O)CC1=CC[C@@H]1[C@@H]2CC[C@]2(C)C(c3nn(-c4ccc(C#N)cc4)cc3CO)=CC[C@@H]12
[1]
  inhibition of growth at 10 µM: 71.6%
[2]
  inhibition of growth at 30 µM: 88.4%
[12]
  IC50: 1.4 µM
[3]
  inhibition of growth at 10 µM: 89.6%
[4]
  inhibition of growth at 30 µM: 94.5%
[5]
  IC50: 1.2 µM
[6]
  inhibition of growth at 10 µM: 95.9%
[7]
  inhibition of growth at 30 µM: 96.4%
[8]
  IC50: 1.8 µM
[9]
  inhibition of growth at 10 µM: 86.5%
[10]
  inhibition of growth at 30 µM: 91.9%
[11]
  IC50: 1.6 µM

## C[C@]12CC[C@H](O)CC1=CC[C@@H]1[C@@H]2CC[C@]2(C)C(c3nn(-c4ccc(Cl)cc4)cc3C=O)=CC[C@@H]12
[1]
  inhibition of growth at 10 µM: 32.1%
[2]
  inhibition of growth at 30 µM: 55.7%
[3]
  inhibition of growth at 10 µM: 43.6%
[4]
  inhibition of growth at 30 µM: 68.4%
[6]
  inhibition of growth at 10 µM: < 20%
[7]
  inhibition of growth at 30 µM: 41.1%
[9]
  inhibition of growth at 10 µM: 48.4%
[10]
  inhibition of growth at 30 µM: 60.5%

## CC(=O)O[C@H]1CC[C@@]2(C)C(=CC[C@@H]3[C@@H]2CC[C@]2(C)C(c4nn(-c5ccc(C#N)cc5)cc4C=O)=CC[C@@H]32)C1
[1]
  inhibition of growth at 10 µM: 62.2%
[2]
  inhibition of growth at 30 µM: 85.3%
[3]
  inhibition of growth at 10 µM: 60.4%
[4]
  inhibition of growth at 30 µM: 83.6%
[6]
  inhibition of growth at 10 µM: 43%
[7]
  inhibition of growth at 30 µM: 84.5%
[9]
  inhibition of growth at 10 µM: 58.9%
[10]
  inhibition of growth at 30 µM: 80.4%

## CC(=O)O[C@H]1CC[C@@]2(C)C(=CC[C@@H]3[C@@H]2CC[C@]2(C)C(c4nn(-c5ccc(C)cc5)cc4C=O)=CC[C@@H]32)C1
[1]
  inhibition of growth at 10 µM: 24.6%
[2]
  inhibition of growth at 30 µM: 44.4%
[3]
  inhibition of growth at 10 µM: 37.2%
[4]
  inhibition of growth at 30 µM: 50.8%
[6]
  inhibition of growth at 10 µM: < 20%
[7]
  inhibition of growth at 30 µM: 27.2%
[9]
  inhibition of growth at 10 µM: < 20%
[10]
  inhibition of growth at 30 µM: 34.9%

## C[C@]12CC[C@H](O)CC1=CC[C@@H]1[C@@H]2CC[C@]2(C)C(c3nn(-c4ccc([N+](=O)[O-])cc4)cc3CO)=CC[C@@H]12
[1]
  inhibition of growth at 10 µM: 65.4%
[2]
  inhibition of growth at 30 µM: 87.6%
[3]
  inhibition of growth at 10 µM: 73.2%
[4]
  inhibition of growth at 30 µM: 84.7%
[6]
  inhibition of growth at 10 µM: 78.1%
[7]
  inhibition of growth at 30 µM: 92.7%
[8]
  IC50: 4.3 µM
[9]
  inhibition of growth at 10 µM: 82.2%
[10]
  inhibition of growth at 30 µM: 91.9%
[11]
  IC50: 2.7 µM

## Cc1ccc(-n2cc(CO)c(C3=CC[C@H]4[C@@H]5CC=C6C[C@@H](O)CC[C@]6(C)[C@H]5CC[C@]34C)n2)cc1
[1]
  inhibition of growth at 10 µM: 64.8%
[2]
  inhibition of growth at 30 µM: 83.3%
[3]
  inhibition of growth at 10 µM: 68.7%
[4]
  inhibition of growth at 30 µM: 90.7%
[6]
  inhibition of growth at 10 µM: 72.4%
[7]
  inhibition of growth at 30 µM: 96.6%
[9]
  inhibition of growth at 10 µM: 73.5%
[10]
  inhibition of growth at 30 µM: 89.4%
